Results as given in ChEMBL document CHEMBL1201862, “PubChem BioAssay data set” (2004).
Active and inactive are the calls of the source.

Legend:
[1] = target: Troponin, cardiac muscle (Homo sapiens, UniProt P19429+P45379+P63316); test: Fluorescence-based biochemical high throughput dose response assay for activators of the calcium sensitivity of cardiac Regulated Thin Filaments (RTF). [Related pubchem assays (depositor defined):AID493008, AID493018, AID504382, AID504383]; format: protein-complex assay
[2] = target: T1, Type-1 angiotensin II receptor (Homo sapiens, UniProt P30556); test: AT1 receptor agonists, dose response, selectivity assay for APJ receptor agonist project, cell-based, uHTS hits (AID 488865); format: functional;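 also: beta-arrestin recruitment to AT1 measured by enzyme fragment complementation luminescence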
T1 sequence (P30556 whole entry): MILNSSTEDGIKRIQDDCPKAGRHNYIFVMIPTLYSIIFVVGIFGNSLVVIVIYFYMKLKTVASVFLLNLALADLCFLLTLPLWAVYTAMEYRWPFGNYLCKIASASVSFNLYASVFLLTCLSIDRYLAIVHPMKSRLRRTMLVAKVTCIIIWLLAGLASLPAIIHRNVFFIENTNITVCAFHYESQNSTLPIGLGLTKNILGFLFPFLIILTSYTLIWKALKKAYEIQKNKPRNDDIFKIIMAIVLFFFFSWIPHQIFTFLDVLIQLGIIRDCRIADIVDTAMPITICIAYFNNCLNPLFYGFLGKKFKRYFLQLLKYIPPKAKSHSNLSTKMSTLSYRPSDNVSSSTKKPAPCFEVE

[3] = target: T2, Ubiquitin-conjugating enzyme E2 N (Homo sapiens, UniProt P61088); format: functional;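 also: Dose-response confirmation in a TR-FRET assay detecting UBC13-driven polyubiquitin chain formation, inhibition measured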
T2 sequence (P61088 whole entry): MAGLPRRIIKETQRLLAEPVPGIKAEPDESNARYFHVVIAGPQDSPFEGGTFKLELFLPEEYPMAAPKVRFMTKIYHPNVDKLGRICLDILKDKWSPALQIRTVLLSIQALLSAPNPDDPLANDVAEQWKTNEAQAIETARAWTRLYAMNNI

[4] = inhibitors of intracellular T. cruzi replication, confirmation, NIH3T3 host cells, beta-gal luminescence (AID 2044); format: functional, cell-based;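 also: intracellular parasites grown in NIH/3T3 mouse fibroblasts as host cells; luminescent beta-galactosidase reporter signal from transgenic T. cruzi replicating inside host cells; inhibitors lower the luminescence signal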
[5] = cytotoxicity toward NIH3T3 fibroblasts, dose response, counter-screen, cell-based, ATP luminescence, mouse fibroblasts (AID 2010); format: functional;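 also: cells exposed to compound for about 90 hours before reading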
[6] = target: E3 ubiquitin-protein ligase Mdm2/Protein Mdm4 (Homo sapiens, UniProt O15151+Q00987); test: Mdm2-MdmX interaction inhibitors, dose response, luminescence detection (AID 504593); format: functional
[7] = target: Voltage-dependent T-type calcium channel subunit alpha-1H (Homo sapiens, UniProt O95180); test: Cav3.2 T-type channel inhibitors, cell-based, synthetic library set 1, calcium flux (AID 493022); format: functional
[8] = target: T3, Runt-related transcription factor 1/Core-binding factor subunit beta (Homo sapiens, UniProt Q01196+Q13951); test: inhibitors of RUNX1 Runt–CBFb-SMMHC binding, primary screen, biochemical, FRET, Cerulean-Runt, Venus-CBFb-SMMHC, uHTS (AID 1434); format: protein assay;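 also: partner is the CBFb-SMMHC leukemia fusion protein rather than wild-type CBFb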
[9] = target: T3, Runt-related transcription factor 1/Core-binding factor subunit beta; test: inhibitors of RUNX1 Runt–CBFb-SMMHC binding, biochemical, TR-FRET (AID 1438); format: protein assay
[10] = tested on: HEK293; test: cells; format: functional, cell-based; settings: Homo sapiens
[11] = tested on: HEK293; test: NOD2 signaling inhibitors in MDP-stimulated cells, cell-based, uHTS, luminescence (AID 2001); format: functional; settings: Homo sapiens
[12] = tested on: HEK293; test: cells; format: functional, cell-based; settings: Homo sapiens; remark: listed apart in the source
[13] = tested on: HEK293; test: NOD1 signaling inhibitors, primary screen, cell-based, luminescence, uHTS (AID 1578); format: functional; settings: Homo sapiens
[14] = tested on: HEK293; test: cells; format: functional, cell-based; settings: Homo sapiens; remark: listed apart in the source
[15] = target: Nucleotide-binding oligomerization domain-containing protein 2 (Homo sapiens, UniProt Q9HC29); test: NOD2 signaling inhibitors, cell-based, luminescence, uHTS, HEK293 (AID 1566); format: functional

Oc1[nH]nc(C(F)(F)F)c1/C=N/c1cccc(Cl)c1
EC50 [1]: > 71.5 µM (inactive)

COc1cc2c(cc1NC(=O)c1cc(-c3ccncc3)nc3ccc(C)cc13)oc1ccccc12
EC50 [2]: > 100 µM (inactive)

COc1ccc(-c2cc3c(=O)n(CC(=O)NCCCN4CCC(N5CCCCC5)CC4)nc(C)n3n2)cc1
IC50 [3]: > 20 µM (inactive) | EC50 [4]: 3.09 µM (active) | EC50 [5]: > 60 µM (not active) | IC50 [6]: 9.38 µM (active)

Cc1ccc(-c2nnc(NC(=O)C(C)(C)Oc3ccccc3)o2)cc1C
EC50 [7]: 2.1 µM (active)

Cn1c(=O)c(/C=N/c2ccccc2)c(O)c2ccccc21
IC50 [8]: > 100 µM (inactive) | IC50 [9]: > 100 µM (inactive)

C=CCn1c(O)c(N=NC(=S)Nc2cccc(OC)c2)c2ccccc21
EC50 [4]: 0.589 µM (active) | EC50 [5]: 4.49 µM (active) | IC50 [10]: > 20 µM (inactive) | IC50 [11]: 1.76 µM (active) | IC50 [12]: 3.41 µM (active) | EC50 [13]: > 20 µM (inactive) | IC50 [14]: > 20 µM (inactive) | EC50 [15]: > 20 µM (inactive)
